Laboratory results taken from PubChem BioAssay AID1963421 (Molecular Pharmacology Branch, DTP, NCI, 2024).

Test system: 519858-162-T-J1-PDC complex spheroid growth, % test/control
Assay: Anticancer human tumor 519858-162-T-J1-PDC patient-derived colon adenocarcinoma cell line growth inhibition [Asc]
Settings: for IC50: curve of first compound; for viability, T/C: stronger effect = lower value
Description: Multicellular complex tumor spheroid response to apoptosis pathway targeting inhibitors Alrizomadlin, Pelcitoclax, and Dasminapant in combination with a variety of drugs and investigational agents in selected tumor cell lines
The MDM2 inhibitor alrizomadlin, the Bcl-2/Bcl-xL inhibitor pelcitoclax, and the IAPs inhibitor dasminapant were evaluated both individually and in combination with standard of care and investigational anticancer small molecules within a complex spheroid model of solid tumors. . Complex spheroids include a stromal component modeled by human endothelial cells (HUVEC) and fibroblasts modeled by human mesenchymal stem cells (MSCs). The concentration ranges selected for each drug and investigational agent were based upon clinically achievable concentrations if the clinical Cmax of the agent was known.
Compounds. The drugs and investigational agents: alrizomadlin (APG-115; NSC831270), pelcitoclax (APG-1252; NSC835773), dasminapant (APG-1387;NSC834197), TAK-243 (NSC785004), copanlisib (NSC809693), olaparib (NSC753686), talazoparib (NSC767125), cobimetinib (NSC 768068), eltanexor (KPT-8602, NSC 794443), abemaciclib (NSC 768073), sotorasib (NSC818433), adagrasib (NSC 831453), MRTX-1133 (NSC 836407), Iadademestat (ORY1001, NSC 806812), and RMC-4630 (NSC839698), were obtained from the NCI Developmental Therapeutics Program Chemical Repository. The FDA-approved anticancer drug set is available from the Developmental Therapeutics Program at https://dtp.cancer.gov/organization/dscb/obtaining/available plates.htm. […] The stock solutions were prepared in dimethyl sulfoxide (DMSO, Sigma-Aldrich, St. Louis, MO, cat. D2650) at 800-fold the tested concentration and stored at -70 degrees C prior to their use. All drugs and investigational agents were tested over a range starting from a high concentration at or near the clinical Cmax and decreasing in half-log increments. If the clinical Cmax for an agent had not been determined, the highest concentration tested was 10 microM.
The patient-derived cancer (PDC) cell lines include five colon adenocarcinomas: 186277-243-T-J2-PDC, 616215-338-R-J1-PDC, 439559-082-T-J2-PDC, 463943-066-T-J2-PDC, and 519858-162-T-J1-PDC; three pancreatic carcinomas: 323965-272-R-J2-PDC, 521955-158-R6-J3-PDC, and 521955-158-R2-J5-PDC; two uterine sarcomas: 327498-152-R-J2-PDC and 993429-296-R-J1-PDC; two rhabdomyosarcomas: 755483-174-R-J1-PDC and 772245-204-R-J1-PDC; two soft tissue sarcomas: 126254-015-R-J1-PDC and 494315-158-R-J1-PDC; two malignant fibrous histiocytomas: 317291-083-R-J1-PDC and 596521-263-R-J1-PDC; two breast carcinomas: 171881-019-R-J1-PDC and 885512-296-R-J2-PDC; and one ovarian carcinoma: 6556581-035-R-J-PDC were obtained from the NCI PDMR, (https://pdmr.cancer.gov). The established cell lines HSSY-2 synovial sarcoma (RRID:CVCL 8719), SYO-1 synovial sarcoma (RRID:CVCL_7146), MPNST malignant peripheral neural sheath tumor were obtained from the Sloan Kettering Institute. The following established cell lines were purchased from the American Type Culture Collection (ATCC, Manassas, VA), Sor the received from the NCI repository:, PANC-1 pancreatic carcinoma (CRL-1469, RRID:CVCL_0480), OVCAR-5 ovarian carcinoma (RRID:CVCL_1628), OVCAR-8 ovarian carcinoma (RRID:CVCL_1629), , MCF-7 breast carcinoma (CRL-12584, RRID:CVCL_0031), MDA-MB-231 breast carcinoma (CRL-12532, RRID:CVCL_0062), NCI-H1876 small cell lung carcinoma (CRL-5902, RRID:CVCL_1503), NCI-H510A small cell lung carcinoma (HTB-184, RRID:CVCL_1565), NCI-H1417 (CRL-5869, RRID:CVCL_1469), and NCI-H196 small cell lung carcinoma (CRL-5823, RRID:CVCL_1509). Dr. Peter Houghton (Greehey Children's Cancer Research Institute, University of Texas Health Science Center, San Antonio, TX) provided Rh-18 rhabdomyosarcoma (RRID:CVCL_1659). Pooled donor human umbilical vein endothelial cells (HUVEC, Lonza, cat. CC-2519) and human mesenchymal stem cells (hMSC, Lonza, cat. PT-2501) were purchased from Lonza (Walkersville, MD).
Cell Culture. […]

[1] = second compound 0.00949 µM, first compound 0.0316 µM
[2] = second compound 0.00949 µM, first compound 0.1 µM
[3] = second compound 0.00949 µM, first compound 0.316 µM
[4] = second compound 0.00949 µM, first compound 1 µM
[5] = second compound 0.03 µM, first compound 0.0316 µM
[6] = second compound 0.03 µM, first compound 0.1 µM
[7] = second compound 0.03 µM, first compound 0.316 µM
[8] = second compound 0.03 µM, first compound 1 µM
[9] = second compound 0.0949 µM, first compound 0.0316 µM
[10] = second compound 0.0949 µM, first compound 0.1 µM
[11] = second compound 0.0949 µM, first compound 0.316 µM
[12] = second compound 0.0949 µM, first compound 1 µM
[13] = second compound 0.3 µM, first compound 0.0316 µM
[14] = second compound 0.3 µM, first compound 0.1 µM
[15] = second compound 0.3 µM, first compound 0.316 µM
[16] = second compound 0.3 µM, first compound 1 µM
[17] = second compound 0.949 µM, first compound 0.0316 µM
[18] = second compound 0.949 µM, first compound 0.1 µM
[19] = second compound 0.949 µM, first compound 0.316 µM
[20] = second compound 0.949 µM, first compound 1 µM
[21] = second compound 3 µM, first compound 0.0316 µM
[22] = second compound 3 µM, first compound 0.1 µM
[23] = second compound 3 µM, first compound 0.316 µM
[24] = second compound 3 µM, first compound 1 µM
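Also: seven day drug exposure begun three days after spheroid seeding.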
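For viability, T/C in this document: 100% = DMSO vehicle wells and lower values mean less viable spheroid.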

CCN1CCN(Cc2ccc(Nc3ncc(F)c(-c4cc(F)c5nc(C)n(C(C)C)c5c4)n3)nc2)CC1 + CCN1C(C(=O)NC23CCC(C(=O)O)(CC2)CC3)C(c2cccc(Cl)c2F)C2(C(=O)Nc3cc(Cl)ccc32)C12CCCCC2
IC50 (second compound 0.00949 µM): > 1 µM | IC50 (second compound 0.03 µM): > 1 µM | IC50 (second compound 0.0949 µM): > 1 µM | IC50 (second compound 0.3 µM): > 1 µM | IC50 (second compound 0.949 µM): > 1 µM | IC50 (second compound 3 µM): > 1 µM | viability, T/C (second compound 0.00949 µM, first compound 0.00316 µM): 85.7% | viability, T/C (second compound 0.00949 µM, first compound 0.01 µM): 89.3% | viability, T/C [1]: 76.2% | viability, T/C [2]: 88.8% | viability, T/C [3]: 60.2% | viability, T/C [4]: 71% | viability, T/C (second compound 0.03 µM, first compound 0.00316 µM): 124% | viability, T/C (second compound 0.03 µM, first compound 0.01 µM): 84.4% | viability, T/C [5]: 91.5% | viability, T/C [6]: 105% | viability, T/C [7]: 93.4% | viability, T/C [8]: 76.9% | viability, T/C (second compound 0.0949 µM, first compound 0.00316 µM): 99.8% | viability, T/C (second compound 0.0949 µM, first compound 0.01 µM): 95.7% | viability, T/C [9]: 86.2% | viability, T/C [10]: 81.7% | viability, T/C [11]: 67.7% | viability, T/C [12]: 58.8% | viability, T/C (second compound 0.3 µM, first compound 0.00316 µM): 97.6% | viability, T/C (second compound 0.3 µM, first compound 0.01 µM): 83.5% | viability, T/C [13]: 69.1% | viability, T/C [14]: 61.9% | viability, T/C [15]: 64.2% | viability, T/C [16]: 104% | viability, T/C (second compound 0.949 µM, first compound 0.00316 µM): 87.4% | viability, T/C (second compound 0.949 µM, first compound 0.01 µM): 72.6% | viability, T/C [17]: 84.8% | viability, T/C [18]: 80.9% | viability, T/C [19]: 81.2% | viability, T/C [20]: 63% | viability, T/C (second compound 3 µM, first compound 0.00316 µM): 71.4% | viability, T/C (second compound 3 µM, first compound 0.01 µM): 69.9% | viability, T/C [21]: 78.6% | viability, T/C [22]: 89.2% | viability, T/C [23]: 72.7% | viability, T/C [24]: 66.4%

O=C(c1cc(Cc2n[nH]c(=O)c3ccccc23)ccc1F)N1CCN(C(=O)C2CC2)CC1 + CCN1C(C(=O)NC23CCC(C(=O)O)(CC2)CC3)C(c2cccc(Cl)c2F)C2(C(=O)Nc3cc(Cl)ccc32)C12CCCCC2
IC50 (second compound 0.00949 µM): > 10 µM | IC50 (second compound 0.03 µM): > 10 µM | IC50 (second compound 0.0949 µM): > 10 µM | IC50 (second compound 0.3 µM): > 10 µM | IC50 (second compound 0.949 µM): > 10 µM | IC50 (second compound 3 µM): > 10 µM | viability, T/C [1]: 106% | viability, T/C [2]: 81.9% | viability, T/C [3]: 101% | viability, T/C [4]: 81% | viability, T/C (second compound 0.00949 µM, first compound 3.16 µM): 90.8% | viability, T/C (second compound 0.00949 µM, first compound 10 µM): 79.4% | viability, T/C [5]: 130% | viability, T/C [6]: 82.9% | viability, T/C [7]: 127% | viability, T/C [8]: 93.2% | viability, T/C (second compound 0.03 µM, first compound 3.16 µM): 75.2% | viability, T/C (second compound 0.03 µM, first compound 10 µM): 74.9% | viability, T/C [9]: 117% | viability, T/C [10]: 103% | viability, T/C [11]: 101% | viability, T/C [12]: 77% | viability, T/C (second compound 0.0949 µM, first compound 3.16 µM): 92.7% | viability, T/C (second compound 0.0949 µM, first compound 10 µM): 100% | viability, T/C [13]: 163% | viability, T/C [14]: 94.9% | viability, T/C [15]: 99.2% | viability, T/C [16]: 83.3% | viability, T/C (second compound 0.3 µM, first compound 3.16 µM): 85.2% | viability, T/C (second compound 0.3 µM, first compound 10 µM): 72.2% | viability, T/C [17]: 71.9% | viability, T/C [18]: 70.6% | viability, T/C [19]: 76.5% | viability, T/C [20]: 86.5% | viability, T/C (second compound 0.949 µM, first compound 3.16 µM): 85.2% | viability, T/C (second compound 0.949 µM, first compound 10 µM): 94% | viability, T/C [21]: 63.8% | viability, T/C [22]: 89.3% | viability, T/C [23]: 94.7% | viability, T/C [24]: 73.4% | viability, T/C (second compound 3 µM, first compound 3.16 µM): 100% | viability, T/C (second compound 3 µM, first compound 10 µM): 76%
